Measurements taken from US20200347039A1, “CRYSTAL FORM OF RENAL OUTER MEDULLARY POTASSIUM CHANNEL INHIBITOR AND PREPARATION METHOD THEREOF” (JIANGSU HENGRUI MEDICINE CO., LTD., priority 2017, published 2020).

Assay: Pharmacokinetic experiment in SD rats after gavage (LC/MS/MS plasma concentration)
Format: in vivo
Details: for AUClast: SD rat experiment (5 mg/kg)
[1] = SD rats, po 5.0 mg/kg, suspension in 0.5% CMC-Na
[2] = both sexes, rat, plasma, SD rats, po 5.0 mg/kg, suspension in 0.5% CMC-Na

Molecule `COc1cc(C(=O)NC2CCN(C[C@H](O)c3ccc4c(c3C)COC4=O)CC2)ncc1C#N` [free state] has an AUClast of 9283 ng·h/mL, a T1/2 [1] of 3.62 h and a Vz/F_obs [1] of 3.019 L/kg. For the same molecule, the AUC(0-t) [2] was 9280 ng·h/mL.

Molecule `COc1cc(C(=O)NC2CCN(C[C@H](O)c3ccc4c(c3C)COC4=O)CC2)ncc1C#N.O=C(O)C(O)C(O)C(=O)O` [Crystal form III, (R)-5-cyano-N-(1-(2-hydroxy-2-(4-methyl-1-carbonyl-1,3-dihydroisobenzofuran-5-yl)ethyl)piperidin-4-yl)-4-methoxypyridinecarboxamide tartrate] has an AUClast of 12618 ng·h/mL, an AUC(0-t) [2] of 12600 ng·h/mL and a CL/F [2] of 6.7 mL/min/kg. The half-life [2] was 4.21 h and the Vd/F (both sexes, rat, plasma, SD rats, po 5.0 mg/kg, suspension in 0.5% CMC-Na, read-out: Vz/F_obs) was 2.45 L/kg.
